Measurements published in patent US20230165846A1, “HETEROCYCLIC GLP-1 AGONISTS” (Gasherbrum Bio, Inc., priority 2020, published 2023).

What follows are compounds tested against GLP-1 Receptor (Homo sapiens, UniProt P43220) (assay: GLP-1R agonist cAMP stimulation assay, Method 2 (HDB HEK293/GLP1R/CRE-LUC, Cisbio cAMP dynamic 2 kit)). Settings: HEK293/GLP1R/CRE-LUC cells (HD Biosciences); 30 min at 37° C.; 0.5 mM IBMX, 0.1% BSA; geometric mean where n>=2; read-out: GLP1R cAMP Stimulation DR: EC50 (nM) Method 2 (HDB).
Sequence of GLP-1 Receptor (P43220 24-463): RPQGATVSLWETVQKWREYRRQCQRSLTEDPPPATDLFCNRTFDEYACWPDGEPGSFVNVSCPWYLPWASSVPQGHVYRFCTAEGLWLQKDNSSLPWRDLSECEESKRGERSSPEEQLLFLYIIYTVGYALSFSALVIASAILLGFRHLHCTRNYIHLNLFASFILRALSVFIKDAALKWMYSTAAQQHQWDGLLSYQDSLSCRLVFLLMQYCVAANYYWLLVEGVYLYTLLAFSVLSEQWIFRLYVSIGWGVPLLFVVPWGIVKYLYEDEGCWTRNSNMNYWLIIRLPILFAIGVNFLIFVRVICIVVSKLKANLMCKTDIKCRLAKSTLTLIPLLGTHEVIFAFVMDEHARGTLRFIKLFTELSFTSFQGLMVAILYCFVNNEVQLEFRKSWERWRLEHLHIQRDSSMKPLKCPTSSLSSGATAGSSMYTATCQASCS
Assay type: cell-based
Description: Method 2: Activation of GLP-1 receptor is known to stimulate cyclic AMP (cAMP) production in cells which indicates primary coupling to the Gas subunit of the G protein heterotrimeric complex.
To optimize functional activity directed toward Gas coupling, a HEK293/CRE-Luc cell line developed by HDB stably expressing the GLP-1 Receptor was used. 200× concentration of compound working solutions were prepared (Agilent Technologies Bravo) with ½log serial dilution in 384-well Echo LDV plate (Labcyte, Cat# LP-0200). […] Seal the plate and incubate at 37° C. with 5% CO2 for 30 min.
After incubation the cAMP assay signal was generated using cAMP dynamic 2 Kit (Cisbio). 5 µL cAMP-d2 working solution was added to each well, followed with 5 µL Anti-cAMP antibody-cryptate working solution added to each well using ThermoFisher Multidrop Combi. Incubate at room temperature for 1 hour protected from light.
%Activity = 100% x (mean RLU of test sample - mean RLU of vehicle control) / (mean RLU of MAX control - mean RLU of vehicle control))
This is done to account for the lognormal distribution of multiple estimates of EC50 values. In practice geometric mean is calculated by first generating log values of EC50, averaging replicates and then calculating the antilog of the average.
Compound `N#CC1(Cn2c(CC3CC=C(c4ncc(F)c(OCc5ccc(Cl)cc5F)n4)CC3)nc3ccc(C(=O)O)nc32)CC1` (stereo not shown) [Compound 125, 2-((4-(4-((4-chloro-2-fluorobenzyl)oxy)-5-fluoropyrimidin-2-yl)cyclohex-3-en-1-yl)methyl)-3-((1-cyanocyclopropyl)methyl)-3H-imidazo[4,5-b]pyridine-5-carboxylic acid] has an EC50 of 0.045 nM.
With `O=C(O)c1ccc2nc(CC3CC=C(c4ncc(F)c(OCc5ccc(Cl)cc5F)n4)CC3)n(C[C@@H]3CCO3)c2n1` (stereo partly drawn) [Compound 114a, 2-((4-(4-((4-chloro-2-fluorobenzyl)oxy)-5-fluoropyrimidin-2-yl)cyclohex-3-en-1-yl)methyl)-3-(((S)-oxetan-2-yl)methyl)-3H-imidazo[4,5-b]pyridine-5-carboxylic acid] the EC50 was 0.02 nM.
With `N#Cc1ccc(COc2cccc(C3=CCC(Cc4nc5cnc(C(=O)O)cc5n4C[C@@H]4CCO4)CC3)n2)c(F)c1` (stereo partly drawn) [Compound 117a, 2-((4-(6-((4-cyano-2-fluorobenzyl)oxy)pyridin-2-yl)cyclohex-3-en-1-yl)methyl)-1-(((S)-oxetan-2-yl)methyl)-1H-imidazo[4,5-c]pyridine-6-carboxylic acid] the EC50 was 0.37 nM.
Compound `O=C(O)c1cnc2nc(CC3CC=C(c4nccc(OCc5ccc(Cl)cc5F)n4)CC3)n(C[C@@H]3CCO3)c2c1` (stereo partly drawn) [Compound 119a, 2-((4-(4-((4-chloro-2-fluorobenzyl)oxy)pyrimidin-2-yl)cyclohex-3-en-1-yl)methyl)-1-(((S)-oxetan-2-yl)methyl)-1H-imidazo[4,5-b]pyridine-6-carboxylic acid] has an EC50 of 0.17 nM.
With `COCCn1c(CC2CC=C(c3ncc(F)c(OCc4ccc(Cl)cc4F)n3)CC2)nc2ccc(C(=O)O)nc21` (stereo not shown) [Compound 127] the EC50 was 0.83 nM.
`O=C(O)c1ccc2nc(CC3CC=C(c4ncc(F)c(OCc5ccc(Cl)cc5F)n4)CC3)n(C[C@@H]3CCO3)c2n1` (single isomer, unassigned) [Compound 114b] was tested, and the EC50 was 0.012 nM.
For `O=C(O)c1cc2c(cn1)nc(CC1CC=C(c3cccc(OCc4ccc(Cl)cc4F)n3)CC1)n2C[C@@H]1CCO1` (stereo partly drawn) [Compound 116a, 2-((4-(6-((4-chloro-2-fluorobenzyl)oxy)pyridin-2-yl)cyclohex-3-en-1-yl)methyl)-1-(((S)-oxetan-2-yl)methyl)-1H-imidazo[4,5-c]pyridine-6-carboxylic acid], the EC50 was 0.73 nM.
Compound `N#Cc1ccc(COc2cccc(C3=CCC(Cc4nc5ccc(C(=O)O)nc5n4C[C@@H]4CCO4)CC3)n2)c(F)c1` (single isomer, unassigned) [Compound 101c] has an EC50 of 0.083 nM.
`N#Cc1ccc(COc2cccc(C3=CCC(Cc4nc5ccc(C(=O)O)nc5n4C[C@@H]4CCO4)CC3)n2)c(F)c1` (single isomer, unassigned) [Compound 101b] was tested, and the EC50 was 0.0088 nM.
Work on `O=C(O)c1ccc2nc(CC3CC=C(c4ncc(F)c(OCc5ccc(Cl)cc5F)n4)CC3)n(C[C@@H]3CCO3)c2n1` (single isomer, unassigned) [Compound 114c] yielded an EC50 of 0.13 nM.
With `O=C(O)c1ccc2nc(CC3CC=C(c4ncc(F)c(OCc5ccc(Cl)cn5)n4)CC3)n(C[C@@H]3CCO3)c2n1` (stereo partly drawn) [Compound 120a, 2-((4-(4-((5-chloropyridin-2-yl)methoxy)-5-fluoropyrimidin-2-yl)cyclohex-3-en-1-yl)methyl)-3-(((S)-oxetan-2-yl)methyl)-3H-imidazo[4,5-b]pyridine-5-carboxylic acid] the EC50 was 0.12 nM.
`O=C(O)c1cnc2nc(CC3CC=C(c4cccc(OCc5ccc(Cl)cc5F)n4)CC3)n(C[C@@H]3CCO3)c2c1` (stereo partly drawn) [Compound 118a, 2-((4-(6-((4-chloro-2-fluorobenzyl)oxy)pyridin-2-yl)cyclohex-3-en-1-yl)methyl)-1-(((S)-oxetan-2-yl)methyl)-1H-imidazo[4,5-b]pyridine-6-carboxylic acid] showed an EC50 of 0.02 nM.
In the case of `O=C(O)c1ccc2nc(CC3CC=C(c4cccc(OCc5ccc(Cl)cn5)n4)CC3)n(C[C@@H]3CCO3)c2n1` (stereo partly drawn) [Compound 121a, 2-((4-(6-((5-chloropyridin-2-yl)methoxy)pyridin-2-yl)cyclohex-3-en-1-yl)methyl)-3-(((S)-oxetan-2-yl)methyl)-3H-imidazo[4,5-b]pyridine-5-carboxylic acid], the EC50 is reported as 0.027 nM.
